Source: US10760110B2, “Antibiotic testing and screening system” (priority 2017, dated 2020)
≈ marks a conversion by molar mass, not a printed value. Like-named read-outs stand apart in the source and are kept apart here.

Key:
Settings in all cases: Klebsiella pneumoniae
[1] = system: K. pneumoniae NVT1001 and its ΔompK35/36 and/or ΔramR mutants; assay: Etest MIC, OmpK35/36 loss and AcrAB-TolC overexpression (ΔramR) strains (Table 6); assay type: cell-based, Klebsiella pneumoniae
How it was run: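 Ceftazidime and cefotaxime were tested by CLSI broth microdilution on the blaOXA-48 pACYC177 transformant of NVT1001, using CLSI 2017 breakpoints. Parent, porin-deleted (ΔompK35/36) and ΔramR strains were tested by Etest, with values between two-fold dilutions rounded up.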

[2] = system: K. pneumoniae NVT1001 ΔramRΔompK35/36 mutant and its revertants; assay: Etest MIC, ΔramRΔompK35/36 mutant and its revertants (Table 7); assay type: cell-based
[3] = system: K. pneumoniae NVT1001 strains with carbapenemase plasmids; assay: Etest MIC of β-lactams, OmpK35/36 loss, ΔramR and/or carbapenemase (Table 9); assay type: cell-based, Klebsiella pneumoniae
How it was run: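 Etest MICs, with values between standard dilutions rounded up to the next two-fold step, were measured in K. pneumoniae NVT1001 carrying PCR-cloned resistance genes on pACYC177 or pACYC184 plasmids. Interpretation used CLSI 2017 breakpoints, CLSI 2015 for cephalothin and EUCAST 2017 for moxifloxacin. For the blaOXA-48 strain, ceftazidime and cefotaxime were additionally tested by CLSI broth microdilution.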

CO/N=C(\C(=O)N[C@@H]1C(=O)N2C(C(=O)O)=C(COC(N)=O)CS[C@H]12)c1ccco1 [Cefuroxime]
MIC ([1]; WT, NVT1001, read-out: MIC): 4 µg/mL (≈ 9.43 µM)
MIC ([1]; Δ35, ΔompK35 mutant): 8 µg/mL (≈ 18.9 µM)
MIC ([1]; Δ35/36, ΔompK35/36 mutant): 32 µg/mL (≈ 75.4 µM)
MIC ([1]; Δ36, ΔompK36 mutant): 16 µg/mL (≈ 37.7 µM)
MIC ([1]; ΔramR mutant): 32 µg/mL (≈ 75.4 µM)
MIC ([1]; ΔramRΔ35, ΔramRΔompK35 mutant): 64 µg/mL (≈ 151 µM)
MIC ([1]; ΔramRΔ35/36, ΔramRΔompK35/36 mutant): 128 µg/mL (≈ 302 µM)
MIC ([1]; ΔramRΔ36, ΔramRΔompK36 mutant): > 256 µg/mL
MIC ([2]; ΔramRΔompK35/36::ompK35/36 revertant): 32 µg/mL
MIC ([2]; ΔramRΔompK35/36::ompK35 revertant): > 256 µg/mL
MIC ([2]; ΔramRΔompK35/36::ompK36 revertant): 32 µg/mL
MIC ([2]; ΔramRΔompK35/36::ramR revertant): 32 µg/mL
MIC ([2]; ΔramRΔompK35/36::ramR::ompK35/36 revertant): 4 µg/mL
MIC ([2]; ΔramRΔompK35/36::ramR::ompK35 revertant): 16 µg/mL
MIC ([2]; ΔramRΔompK35/36::ramR::ompK36 revertant): 8 µg/mL
MIC ([2]; ΔramRΔompK35/36 mutant): 128 µg/mL
MIC ([3]; IMP-8 on pACYC177, WT (NVT1001), read-out: MIC): > 256 µg/mL
MIC ([3]; IMP-8 on pACYC177, Δ35 (ΔompK35 mutant)): > 256 µg/mL
MIC ([3]; IMP-8 on pACYC177, Δ35/36 (ΔompK35/36 mutant)): > 256 µg/mL
MIC ([3]; IMP-8 on pACYC177, Δ36 (ΔompK36 mutant)): > 256 µg/mL
MIC ([3]; IMP-8 on pACYC177, ΔramR mutant): > 256 µg/mL
MIC ([3]; IMP-8 on pACYC177, ΔramRΔ35 (ΔramRΔompK35 mutant)): > 256 µg/mL
MIC ([3]; IMP-8 on pACYC177, ΔramRΔ35/36 (ΔramRΔompK35/36 mutant)): > 256 µg/mL
MIC ([3]; IMP-8 on pACYC177, ΔramRΔ36 (ΔramRΔompK36 mutant)): > 256 µg/mL
MIC ([3]; KPC-2 on pACYC177, WT (NVT1001), read-out: MIC): > 256 µg/mL
MIC ([3]; KPC-2 on pACYC177, Δ35 (ΔompK35 mutant)): > 256 µg/mL
MIC ([3]; KPC-2 on pACYC177, Δ35/36 (ΔompK35/36 mutant)): > 256 µg/mL
MIC ([3]; KPC-2 on pACYC177, Δ36 (ΔompK36 mutant)): > 256 µg/mL
MIC ([3]; KPC-2 on pACYC177, ΔramR mutant): > 256 µg/mL
MIC ([3]; KPC-2 on pACYC177, ΔramRΔ35 (ΔramRΔompK35 mutant)): > 256 µg/mL
MIC ([3]; KPC-2 on pACYC177, ΔramRΔ35/36 (ΔramRΔompK35/36 mutant)): > 256 µg/mL
MIC ([3]; KPC-2 on pACYC177, ΔramRΔ36 (ΔramRΔompK36 mutant)): > 256 µg/mL
MIC ([3]; KPC-3 on pACYC177, WT (NVT1001), read-out: MIC): > 256 µg/mL
MIC ([3]; KPC-3 on pACYC177, Δ35 (ΔompK35 mutant)): > 256 µg/mL
MIC ([3]; KPC-3 on pACYC177, Δ35/36 (ΔompK35/36 mutant)): > 256 µg/mL
MIC ([3]; KPC-3 on pACYC177, Δ36 (ΔompK36 mutant)): > 256 µg/mL
MIC ([3]; KPC-3 on pACYC177, ΔramR mutant): > 256 µg/mL
MIC ([3]; KPC-3 on pACYC177, ΔramRΔ35 (ΔramRΔompK35 mutant)): > 256 µg/mL
MIC ([3]; KPC-3 on pACYC177, ΔramRΔ35/36 (ΔramRΔompK35/36 mutant)): > 256 µg/mL
MIC ([3]; KPC-3 on pACYC177, ΔramRΔ36 (ΔramRΔompK36 mutant)): > 256 µg/mL
MIC ([3]; NDM-1 on pACYC177, WT (NVT1001), read-out: MIC): > 256 µg/mL
MIC ([3]; NDM-1 on pACYC177, Δ35 (ΔompK35 mutant)): > 256 µg/mL
MIC ([3]; NDM-1 on pACYC177, Δ35/36 (ΔompK35/36 mutant)): > 256 µg/mL
MIC ([3]; NDM-1 on pACYC177, Δ36 (ΔompK36 mutant)): > 256 µg/mL
MIC ([3]; NDM-1 on pACYC177, ΔramR mutant): > 256 µg/mL
MIC ([3]; NDM-1 on pACYC177, ΔramRΔ35 (ΔramRΔompK35 mutant)): > 256 µg/mL
MIC ([3]; NDM-1 on pACYC177, ΔramRΔ35/36 (ΔramRΔompK35/36 mutant)): > 256 µg/mL
MIC ([3]; NDM-1 on pACYC177, ΔramRΔ36 (ΔramRΔompK36 mutant)): > 256 µg/mL
MIC ([3]; OXA-48 on pACYC177, WT (NVT1001), read-out: MIC): 8 µg/mL
MIC ([3]; OXA-48 on pACYC177, Δ35 (ΔompK35 mutant)): 16 µg/mL
MIC ([3]; OXA-48 on pACYC177, Δ35/36 (ΔompK35/36 mutant)): 128 µg/mL
MIC ([3]; OXA-48 on pACYC177, Δ36 (ΔompK36 mutant)): 32 µg/mL
MIC ([3]; OXA-48 on pACYC177, ΔramR mutant): 64 µg/mL
MIC ([3]; OXA-48 on pACYC177, ΔramRΔ35 (ΔramRΔompK35 mutant)): 64 µg/mL
MIC ([3]; OXA-48 on pACYC177, ΔramRΔ35/36 (ΔramRΔompK35/36 mutant)): > 256 µg/mL
MIC ([3]; OXA-48 on pACYC177, ΔramRΔ36 (ΔramRΔompK36 mutant)): > 256 µg/mL
MIC ([3]; VIM-1 on pACYC177, WT (NVT1001), read-out: MIC): > 256 µg/mL
MIC ([3]; VIM-1 on pACYC177, Δ35 (ΔompK35 mutant)): > 256 µg/mL
MIC ([3]; VIM-1 on pACYC177, Δ35/36 (ΔompK35/36 mutant)): > 256 µg/mL
MIC ([3]; VIM-1 on pACYC177, Δ36 (ΔompK36 mutant)): > 256 µg/mL
MIC ([3]; VIM-1 on pACYC177, ΔramR mutant): > 256 µg/mL
MIC ([3]; VIM-1 on pACYC177, ΔramRΔ35 (ΔramRΔompK35 mutant)): > 256 µg/mL
MIC ([3]; VIM-1 on pACYC177, ΔramRΔ35/36 (ΔramRΔompK35/36 mutant)): > 256 µg/mL
MIC ([3]; VIM-1 on pACYC177, ΔramRΔ36 (ΔramRΔompK36 mutant)): > 256 µg/mL
MIC ([3]; no supplemental plasmid, WT (NVT1001), read-out: MIC): 4 µg/mL
MIC ([3]; no supplemental plasmid, Δ35 (ΔompK35 mutant)): 8 µg/mL
MIC ([3]; no supplemental plasmid, Δ35/36 (ΔompK35/36 mutant)): 32 µg/mL
MIC ([3]; no supplemental plasmid, Δ36 (ΔompK36 mutant)): 16 µg/mL
MIC ([3]; no supplemental plasmid, ΔramR mutant): 32 µg/mL
MIC ([3]; no supplemental plasmid, ΔramRΔ35 (ΔramRΔompK35 mutant)): 64 µg/mL
MIC ([3]; no supplemental plasmid, ΔramRΔ35/36 (ΔramRΔompK35/36 mutant)): 128 µg/mL
MIC ([3]; no supplemental plasmid, ΔramRΔ36 (ΔramRΔompK36 mutant)): > 256 µg/mL
